Measured values: patent US20080003660A1, “Use of fast-release pristinamycin-type and polyether ionophore type antimicrobial agents in the production of ethanol” (priority 2006, published 2008)

How the values were obtained:
[1] = assay type: physicochemical
From the text: In one embodiment, the liquid phase of the slurry comprises water and up to 25%, for example between 15% and 23%, of ethanol. This ethanol will pre-dissolve a very small portion of the antimicrobial agents from the particles, giving the injected slurry a small but almost instantaneous punch.

[2] = pH in the fermenters; cited from earlier work
[3] = test system: L. plantarum; test: development of resistance test, 10 week duration; assay type: cell-based; details: 10 week duration of the test
From the text: One very effective control program involves the introduction of pristinamycin-type antimicrobial agents, and particularly virginiamycin, to the process. […] Usually, the “waste” byproduct, known as “Dried Distillers Grains with solubles (DDGS), is sold as animal feed, going 45% to dairy, 35% to beef, 15% to swine, and 5% to poultry industries. This is an important factor in the profitability of an ethanol production process, and the total amount of this byproduct produced per year is on the order of 3.5 million metric tons per year. The presence of residual antimicrobial agents in this material can adversely affect the value of this byproduct, as small residual amounts of antimicrobial agents in feed will promote the development of agent-resistant microorganisms. We have tested DDG samples from 8 major ethanol producers using virginiamycin to control microorganisms and found no detectable amount of virginiamycin in the DDG (<1 ppm via the validated Eurofins analysis and <1 ppb via an unvalidated experimental analytical procedure). […] Generally, however, the virginiamycin in mash is destroyed by drying so virginiamycin must be re-added to the feed if so desired. Other effective control programs employ polyether ionophore antimicrobial agents, which provide many of the benefits obtained with pristinamycin-type antimicrobial agents. […]

[4] = dissolution of 0.1 gram powder in 4 liters of stirred water; assay type: physicochemical; details: 5.2 to 10 micron average particle size, 0.1 gram in 4 liters water, continuously stirred
From the text: The over-riding factor in controlling pests such as lactobacilli, however, is the rate of dissolution of small granular pristinamycin-type antimicrobial agents and polyether ionophore-type antimicrobial agents in water or mash. A 0.1 gram sample of a 5.2 to 10 micron average particle size virginiamycin was placed in a beaker with 4 liters of water, and the composition was continuously and vigorously stirred (providing very good mixing and turbulence). The presence of undissolved crystals was very evident. […] Such slow dissolution will reduce effectiveness of pulse treatments as it takes a long time for the added agents to become solubilized and effective, and will reduce the highest concentration of added agents resulting from a pulsed addition as some of the agent may be removed from the fermentator or other tank before the maximum amount of added agent is solubilized, and because some added agent may not dissolve at all. The solubility of monensin, virginiamycin, and similar pristinamycin-type antimicrobial agents and polyether ionophore-type antimicrobial agents in water is very low. Much more important, however, is the rate of dissolution of small granular pristinamycin-type antimicrobial agents and polyether ionophore-type antimicrobial agents in water. […]

[5] = stability in water (hydrolysis); assay type: physicochemical
Experimental: In another embodiment at least a portion of said antimicrobial agent is added to the mash as a composition comprising particles comprising said substantially water insoluble antimicrobial agent(s), said composition being in the form of a slurry. In another embodiment at least a portion of said antimicrobial agent is added to the mash as a composition comprising particles comprising said substantially water insoluble antimicrobial agent(s) and having a weight mean average diameter of between 0.1 and 2 microns, said composition being in the form of a slurry. Many of the preferred antimicrobial agents have a slight instability when dissolved in water, which can be significant over long storage periods. […] Coating particles with protectorants will reduce stability problems. Placing the slurry in a […] substantially water-free material, be it fatty acids, surfactants, dispersants, solvents in which the antimicrobial agents have minimal solubility (called an “oil flowable slurry”), or any combination of the above can reduce loss of antimicrobial agent. […] An oil-flowable slurry can be readily prepared by milling the antimicrobial agents as described herein, but where the solvent replaces the water in the milling process. […]

[6] = cited from earlier work

CC[C@@]1([C@@H]2O[C@@H]([C@H]3O[C@@](O)(CO)[C@H](C)C[C@@H]3C)C[C@@H]2C)CC[C@H]([C@]2(C)CC[C@]3(C[C@H](O)[C@@H](C)[C@@H]([C@@H](C)[C@@H](OC)[C@H](C)C(=O)O)O3)O2)O1 [monensin]
solubility in water/ethanol [1]: high solubility

[H]/N=C(/N)N[C@H]1[C@H](O)[C@@H](O)[C@H](O[C@@H]2O[C@@H](C)[C@](O)(C=O)[C@H]2O[C@@H]2O[C@@H](CO)[C@H](O)[C@@H](O)[C@@H]2NC)[C@@H](N/C(N)=N\[H])[C@@H]1O [streptomycin]
inactivation at fermenter pH [2]: partially inactivated

penicillin
inactivation at fermenter pH [2]: partially inactivated

virginiamycin
time for L. plantarum to develop resistance [3]: no development of resistance
time before only a few crystals remained visible [4]: on the order of an hour
stability when in water [5]: slow hydrolysis
solubility in water [6]: 0.0001 grams/l
solubility in water/ethanol [1]: high solubility
